Columns and labels:
Format in all cases: biochemical
[1] = molecular target: GST-PLK1 (Homo sapiens, UniProt P53350); experiment: PLK TR-FRET peptide assay, PLK1; conditions: read-out: Plk1 IC50
[2] = molecular target: T1, GST-PLK2 (Homo sapiens, UniProt Q9NYY3); experiment: PLK TR-FRET peptide assay, PLK2; conditions: PLK TR-FRET peptide assay, GST-PLK2; read-out: Plk2 IC50
T1 construct: purchased CarnaBio

[3] = molecular target: T2, GST-PLK3 (Homo sapiens, UniProt Q9H4B4); experiment: PLK TR-FRET peptide assay, PLK3; conditions: PLK TR-FRET peptide assay, GST-PLK3; read-out: Plk3 IC50
T2 construct: purchased CarnaBio
T2 sequence (Q9H4B4 whole entry): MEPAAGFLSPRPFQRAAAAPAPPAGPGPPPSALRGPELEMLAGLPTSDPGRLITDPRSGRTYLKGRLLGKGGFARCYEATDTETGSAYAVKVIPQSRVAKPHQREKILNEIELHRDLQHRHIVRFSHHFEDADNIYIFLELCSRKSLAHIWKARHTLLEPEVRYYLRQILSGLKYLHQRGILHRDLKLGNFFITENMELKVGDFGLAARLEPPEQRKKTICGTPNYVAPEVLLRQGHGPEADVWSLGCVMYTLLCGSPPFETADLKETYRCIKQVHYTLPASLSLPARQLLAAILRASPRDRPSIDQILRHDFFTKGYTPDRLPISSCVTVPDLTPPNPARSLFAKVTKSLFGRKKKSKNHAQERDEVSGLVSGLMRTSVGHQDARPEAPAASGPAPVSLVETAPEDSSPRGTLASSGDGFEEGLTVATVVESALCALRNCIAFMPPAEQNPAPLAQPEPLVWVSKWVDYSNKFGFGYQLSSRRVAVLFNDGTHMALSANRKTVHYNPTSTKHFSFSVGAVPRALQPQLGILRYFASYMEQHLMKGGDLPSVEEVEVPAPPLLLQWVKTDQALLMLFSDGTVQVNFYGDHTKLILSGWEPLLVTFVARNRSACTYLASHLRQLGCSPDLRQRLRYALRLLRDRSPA

GST-PLK1, sequence (P53350 whole entry): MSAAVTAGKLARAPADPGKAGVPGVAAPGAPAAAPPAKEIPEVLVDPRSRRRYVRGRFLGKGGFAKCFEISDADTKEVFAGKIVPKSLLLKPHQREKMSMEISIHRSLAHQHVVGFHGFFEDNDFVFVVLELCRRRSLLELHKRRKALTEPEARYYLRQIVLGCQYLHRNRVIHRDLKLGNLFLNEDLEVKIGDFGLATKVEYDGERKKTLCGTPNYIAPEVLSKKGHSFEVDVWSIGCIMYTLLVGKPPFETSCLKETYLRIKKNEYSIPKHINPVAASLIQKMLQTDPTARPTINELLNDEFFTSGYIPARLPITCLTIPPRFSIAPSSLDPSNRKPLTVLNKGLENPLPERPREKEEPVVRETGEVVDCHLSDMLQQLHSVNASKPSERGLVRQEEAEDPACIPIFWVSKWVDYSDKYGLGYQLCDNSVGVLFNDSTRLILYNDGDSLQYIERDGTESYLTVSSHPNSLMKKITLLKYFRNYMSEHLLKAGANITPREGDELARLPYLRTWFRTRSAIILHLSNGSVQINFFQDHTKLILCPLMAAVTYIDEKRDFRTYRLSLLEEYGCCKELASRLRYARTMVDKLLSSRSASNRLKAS
T1 sequence (Q9NYY3 whole entry): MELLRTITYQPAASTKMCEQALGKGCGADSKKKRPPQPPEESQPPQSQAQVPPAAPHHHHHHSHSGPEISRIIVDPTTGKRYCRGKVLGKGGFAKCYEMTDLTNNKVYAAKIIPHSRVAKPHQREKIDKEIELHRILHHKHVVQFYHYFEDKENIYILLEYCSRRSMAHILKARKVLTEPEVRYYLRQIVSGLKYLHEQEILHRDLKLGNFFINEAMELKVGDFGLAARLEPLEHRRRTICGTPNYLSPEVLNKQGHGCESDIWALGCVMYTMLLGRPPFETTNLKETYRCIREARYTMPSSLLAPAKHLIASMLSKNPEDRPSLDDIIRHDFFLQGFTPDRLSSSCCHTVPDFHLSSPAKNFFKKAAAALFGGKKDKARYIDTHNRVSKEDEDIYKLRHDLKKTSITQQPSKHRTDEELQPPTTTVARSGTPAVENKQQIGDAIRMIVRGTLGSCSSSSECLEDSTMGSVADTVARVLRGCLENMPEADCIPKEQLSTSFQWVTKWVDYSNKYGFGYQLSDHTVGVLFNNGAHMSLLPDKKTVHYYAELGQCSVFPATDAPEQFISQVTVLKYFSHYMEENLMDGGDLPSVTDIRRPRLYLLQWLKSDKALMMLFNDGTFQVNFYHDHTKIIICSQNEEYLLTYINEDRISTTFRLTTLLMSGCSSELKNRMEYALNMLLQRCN

SMILES | IC50 [1] | IC50 [2] | IC50 [3]
CC[C@@H]1C(=O)N(C)c2cnc(-n3cnc(C)c3)nc2N1C1CCCC1 [Example 55, (R)-8-cyclopentyl-7-ethyl-5-methyl-2-(4-methyl-1H-imidazol-1-yl)-7,8-dihydropteridin-6(5H)-one] | < 1000 nM | < 1000 nM | 10000 to 50000 nM
CC[C@@H]1C(=O)N(C)c2cnc(-n3ccc(C(=O)NC)n3)nc2N1C1CCCC1 [Example 58, (R)-1-(8-cyclopentyl-7-ethyl-5-methyl-6-oxo-5,6,7,8-tetrahydropteridin-2-yl)-N-methyl-1H-pyrazole-3-carboxamide] | 1000 to 10000 nM | < 1000 nM | > 50000 nM
CC[C@@H]1C(=O)N(C)c2cnc(-n3ccc(C(=O)N(C)C)n3)nc2N1C1CCCC1 [Example 61, (R)-1-(8-cyclopentyl-7-ethyl-5-methyl-6-oxo-5,6,7,8-tetrahydropteridin-2-yl)-N,N-dimethyl-1H-pyrazole-3-carboxamide] | 1000 to 10000 nM | 1000 to 10000 nM | 1000 to 10000 nM
CC[C@@H]1C(=O)N(C)c2cnc(-n3cnc(CCN)c3)nc2N1C1CCCC1 [Example 62, (R)-2-(4-(2-aminoethyl)-1H-imidazol-1-yl)-8-cyclopentyl-7-ethyl-5-methyl-7,8-dihydropteridin-6(5H)-one] | 10000 to 50000 nM | < 1000 nM | 10000 to 50000 nM
CC[C@@H]1C(=O)N(C)c2cnc(-n3ccc(C(N)=O)n3)nc2N1C1CCCC1 [Example 63, (R)-1-(8-cyclopentyl-7-ethyl-5-methyl-6-oxo-5,6,7,8-tetrahydropteridin-2-yl)-1H-pyrazole-3-carboxamide] | 1000 to 10000 nM | < 1000 nM | 1000 to 10000 nM
CC[C@@H]1C(=O)N(C)c2cnc(-n3ccnc3Br)nc2N1C1CCCC1 [Example 65, (R)-2-(2-bromo-1H-imidazol-1-yl)-8-cyclopentyl-7-ethyl-5-methyl-7,8-dihydropteridin-6(5H)-one] | < 1000 nM | < 1000 nM | 10000 to 50000 nM
CC[C@@H]1C(=O)N(C)c2cnc(-n3ccc(=N)cc3)nc2N1C1CCCC1 [Example 73, (R)-8-cyclopentyl-7-ethyl-2-(4-iminopyridin-1(4H)-yl)-5-methyl-7,8-dihydropteridin-6(5H)-one] | 10000 to 50000 nM | 1000 to 10000 nM | > 50000 nM
CC[C@@H]1C(=O)N(C)c2cnc(-n3ccnc3N3CCOC3=O)nc2N1C1CCCC1 [Example 78, (R)-3-(1-(8-cyclopentyl-7-ethyl-5-methyl-6-oxo-5,6,7,8-tetrahydropteridin-2-yl)-1H-imidazol-2-yl)oxazolidin-2-one] | 1000 to 10000 nM | < 1000 nM | 10000 to 50000 nM
CC[C@@H]1C(=O)N(C)c2cnc(-n3ccnc3-c3ccc(S(C)(=O)=O)cc3)nc2N1C1CCCC1 [Example 79, (R)-8-cyclopentyl-7-ethyl-5-methyl-2-(2-(4-(methylsulfonyl)phenyl)-1H-imidazol-1-yl)-7,8-dihydropteridin-6(5H)-one] | 1000 to 10000 nM | < 1000 nM | 10000 to 50000 nM
CN1C(=O)[C@]2(C)CCCN2c2nc(-n3ccnc3-c3ccccc3)ncc21 [Example 80, (S)-5,6a-dimethyl-2-(2-phenyl-1H-imidazol-1-yl)-6a,7,8,9-tetrahydropyrrolo[2,1-h]pteridin-6(5H)-one] | 10000 to 50000 nM | < 1000 nM | 10000 to 50000 nM
CC[C@@H]1C(=O)N(C)c2cnc(-n3ccnc3-c3ccncc3)nc2N1C1CCC1 [Example 81, (R)-8-cyclobutyl-7-ethyl-5-methyl-2-(2-(pyridin-4-yl)-1H-imidazol-1-yl)-7,8-dihydropteridin-6(5H)-one] | 1000 to 10000 nM | < 1000 nM | 10000 to 50000 nM
CC[C@@H]1C(=O)N(C)c2cnc(-n3ccnc3-c3ccncc3)nc2N1C1CCOCC1 [Example 100, (R)-7-ethyl-5-methyl-2-(2-(pyridin-4-yl)-1H-imidazol-1-yl)-8-(tetrahydro-2H-pyran-4-yl)-7,8-dihydropteridin-6(5H)-one] | 1000 to 10000 nM | < 1000 nM | 1000 to 10000 nM
CC[C@@]12CCCN1c1nc(-n3ccnc3-c3ccncc3)ncc1N(C)C2=O [Example 101, (S)-6a-ethyl-5-methyl-2-(2-(pyridin-4-yl)-1H-imidazol-1-yl)-6a,7,8,9-tetrahydropyrrolo[2,1-h]pteridin-6(5H)-one] | 10000 to 50000 nM | < 1000 nM | 10000 to 50000 nM
CC[C@@H]1C(=O)N(C)c2cnc(-c3ccncc3)nc2N1C1CCC1 [Example 109, (R)-8-cyclobutyl-7-ethyl-5-methyl-2-(pyridin-4-yl)-7,8-dihydropteridin-6(5H)-one] | 1000 to 10000 nM | < 1000 nM | 10000 to 50000 nM
CC[C@@H]1C(=O)N(C)c2cnc(-n3ccnc3)nc2N1C1CCC1 [Example 111, (R)-8-cyclobutyl-7-ethyl-2-(1H-imidazol-1-yl)-5-methyl-7,8-dihydropteridin-6(5H)-one] | 1000 to 10000 nM | < 1000 nM | 10000 to 50000 nM
CC[C@@H]1C(=O)N(C)c2cnc(-c3cncnc3-c3ccccc3)nc2N1C1CCCC1 [Example 132, (R)-8-cyclopentyl-7-ethyl-5-methyl-2-(4-phenylpyrimidin-5-yl)-7,8-dihydropteridin-6(5H)-one] | < 1000 nM | < 1000 nM | < 1000 nM

Second part, the molecule after the results:

IC50 [1] | IC50 [2] | IC50 [3] | SMILES
< 1000 nM | 1000 to 10000 nM | 1000 to 10000 nM | CC[C@@H]1C(=O)N(C)c2cnc(-n3cnc(C(=O)OC)c3)nc2N1C1CCCC1 [Example 38, (R)-methyl 1-(8-cyclopentyl-7-ethyl-5-methyl-6-oxo-5,6,7,8-tetrahydropteridin-2-yl)-1H-imidazole-4-carboxylate]
1000 to 10000 nM | 1000 to 10000 nM | 10000 to 50000 nM | CC[C@@H]1C(=O)N(C)c2cnc(-n3cc(C(=O)N(C)C)cn3)nc2N1C1CCCC1 [Example 39, (R)-1-(8-cyclopentyl-7-ethyl-5-methyl-6-oxo-5,6,7,8-tetrahydropteridin-2-yl)-N,N-dimethyl-1H-pyrazole-4-carboxamide]
1000 to 10000 nM | 1000 to 10000 nM | 10000 to 50000 nM | CC[C@@H]1C(=O)N(C)c2cnc(-n3cc(C(=O)N4CCOCC4)cn3)nc2N1C1CCCC1 [Example 41, (R)-8-cyclopentyl-7-ethyl-5-methyl-2-(4-(morpholine-4-carbonyl)-1H-pyrazol-1-yl)-7,8-dihydropteridin-6(5H)-one]
< 1000 nM | < 1000 nM | 10000 to 50000 nM | CC[C@@H]1C(=O)N(C)c2cnc(-n3cnc(Br)c3)nc2N1C1CCCC1 [Example 43, (R)-2-(4-bromo-1H-imidazol-1-yl)-8-cyclopentyl-7-ethyl-5-methyl-7,8-dihydropteridin-6(5H)-one]
< 1000 nM | 1000 to 10000 nM | 1000 to 10000 nM | CC[C@@H]1C(=O)N(C)c2cnc(-n3cc(C(=O)O)cn3)nc2N1C1CCCC1 [Example 44, (R)-1-(8-cyclopentyl-7-ethyl-5-methyl-6-oxo-5,6,7,8-tetrahydropteridin-2-yl)-1H-pyrazole-4-carboxylic acid]
1000 to 10000 nM | < 1000 nM | 10000 to 50000 nM | CC[C@@H]1C(=O)N(C)c2cnc(-n3cnc(C(=O)N4CCOCC4)c3)nc2N1C1CCCC1 [Example 45, (R)-8-cyclopentyl-7-ethyl-5-methyl-2-(4-(morpholine-4-carbonyl)-1H-imidazol-1-yl)-7,8-dihydropteridin-6(5H)-one]
< 1000 nM | < 1000 nM | 1000 to 10000 nM | CC[C@@H]1C(=O)N(C)c2cnc(-n3cnc(C(=O)NC)c3)nc2N1C1CCCC1 [Example 46, (R)-1-(8-cyclopentyl-7-ethyl-5-methyl-6-oxo-5,6,7,8-tetrahydropteridin-2-yl)-N-methyl-1H-imidazole-4-carboxamide]
< 1000 nM | < 1000 nM | 1000 to 10000 nM | CC[C@@H]1C(=O)N(C)c2cnc(-n3cnc(-c4cscn4)c3)nc2N1C1CCCC1 [Example 54, (R)-8-cyclopentyl-7-ethyl-5-methyl-2-(4-(thiazol-4-yl)-1H-imidazol-1-yl)-7,8-dihydropteridin-6(5H)-one]
1000 to 10000 nM | < 1000 nM | 10000 to 50000 nM | CC[C@@H]1C(=O)N(C)c2cnc(-n3ccc(C(=O)O)n3)nc2N1C1CCCC1 [Example 56, (R)-1-(8-cyclopentyl-7-ethyl-5-methyl-6-oxo-5,6,7,8-tetrahydropteridin-2-yl)-1H-pyrazole-3-carboxylic acid]
< 1000 nM | < 1000 nM | 1000 to 10000 nM | CC[C@@H]1C(=O)N(C)c2cnc(-n3cnc(-c4cccnc4)c3)nc2N1C1CCCC1 [Example 59, (R)-8-cyclopentyl-7-ethyl-5-methyl-2-(4-(pyridin-3-yl)-1H-imidazol-1-yl)-7,8-dihydropteridin-6(5H)-one]
< 1000 nM | < 1000 nM | 1000 to 10000 nM | CC[C@@H]1C(=O)N(C)c2cnc(-n3cnc(C(N)=O)c3)nc2N1C1CCCC1 [Example 69, (R)-1-(8-cyclopentyl-7-ethyl-5-methyl-6-oxo-5,6,7,8-tetrahydropteridin-2-yl)-1H-imidazole-4-carboxamide]
< 1000 nM | < 1000 nM | < 1000 nM | CC[C@@H]1C(=O)N(C)c2cnc(-n3ccnc3-c3ccncc3)nc2N1C1CCCC1 [Example 83, (R)-8-cyclopentyl-7-ethyl-5-methyl-2-(2-(pyridin-4-yl)-1H-imidazol-1-yl)-7,8-dihydropteridin-6(5H)-one]
< 1000 nM | < 1000 nM | < 1000 nM | CC[C@@H]1C(=O)N(C)c2cnc(-n3ccnc3-c3cn[nH]c3)nc2N1C1CCCC1 [Example 97, (R)-2-(2-(1H-pyrazol-4-yl)-1H-imidazol-1-yl)-8-cyclopentyl-7-ethyl-5-methyl-7,8-dihydropteridin-6(5H)-one]
< 1000 nM | < 1000 nM | < 1000 nM | CC[C@@H]1C(=O)N(C)c2cnc(-c3ccncc3-c3ccccc3)nc2N1C(C)C [Example 110, (R)-7-ethyl-8-isopropyl-5-methyl-2-(3-phenylpyridin-4-yl)-7,8-dihydropteridin-6(5H)-one]

Source: patent US8445503B2, “Inhibitors of polo-like kinase” (Elan Pharmaceuticals, Inc., priority 2009, dated 2013)
